Bridges are numbered along the chain shown (N, C = ends). Where no end group is shown, it is not given here.
What was measured:
Format in all cases: cell-based
human adipocytes [1] = assay: Glycerol release assay; conditions: for Lipid mobilizing activity: control hormones, Example 2; for Ability to promote lipid mobilization in human adipocytes: conclusion of Example 2
Protocol: (§1) Human pre-adipocytes were isolated by liposuction and maintained in AGM for three weeks in order to permit the pre-adipocytes to differentiate to become mature adipocytes. AGM was removed, and adipocytes were incubated in Krebs-Ringers buffer comprising 0.1% fatty acid-free BSA at 37° C. for five hours in the presence of selected concentrations (10^−9 to 10^−5 molar) of one of Schistocera gregaria AKH II, cockroach hypertrehalosemic factor (obtained from Sigma Chemical Co, St. Louis, Mo., catalog number P0175), and Locusta migratoria AKH I (obtained from American Peptide Co., Sunnyvale, Calif., catalog number 60-9-18). Glycerol released from the adipocytes was assayed using a commercially available kit (GPO-trinder assay kit available form Sigma Chemical Company, St. Louis, Mo.).
A similar experiment was performed, in which glycerol release from adipocytes was assessed in the presence of the Locusta migratoria AKH I or the cockroach hypertrehalosemic factor or in the presence of isoproterenol.

human adipocytes [2] = assay: Effect of propanolol on agent-induced glycerol release; conditions: for Glycerol Release, No Agent (medium concentration in millimolar): propanolol alone
Protocol: as §1
Glycerol release assays were performed as described in Example 2, except that the assays were performed using single selected concentrations of one of cockroach hypertrehalosemic factor, Locusta migratoria AKH I, and isoproterenol and multiple selected concentrations of propanolol.

human adipocytes [3] = assay: Release of tritium label from radiolabeled palmitate (lipid mobilizing activity); conditions: for Ability to mobilize lipids in adipocytes: conclusion of Example 1, murine adipocytes
Protocol: Lipid mobilizing activity was assessed by assaying release of tritium label from radiolabeled palmitate. This assay was performed by maintaining human pre-adipocytes in Adipocyte Growth Medium (AGM), which is Dulbecco's Modified Eagle's Medium (DMEM) mixed 1:1 by volume with Ham's F-10 medium. Ham's F-10 medium comprises 15 millimolar HEPES buffer adjusted to pH 7.4 and supplemented with biotin, pantothenate, human recombinant insulin, dexamethasone, fungicide, bactericide, and 3% (v/v) fetal bovine serum). Pre-adipocytes differentiated to become mature adipocytes by three weeks of maintenance in AGM. On the day prior to assay, the adipocytes were washed and incubated overnight in Krebs-Ringers buffer comprising 0.1% fatty acid-free bovine serum albumin (BSA) and comprising 1 microCurie per milliliter of tritiated (9,10-^3H) palmitate. The following day, the medium was removed, and the cells were washed three times […]. Isoproterenol (0 to 5×10^−8 molar), Schistocera gregaria AKH II (0 to 5×10^−5 molar), or Krebs-Ringer buffer (with 0.1% fatty acid-free BSA) containing neither of these was added to the cell suspension in a volume of 150 microliters. The suspensions were incubated for 4 hours at 37° C., and then 100 microliters of each sample was subjected to scintillation counting to detect released label in the supernatant. The total amount of label incorporated was determined for each well by solubilizing the cells using 1% sodium dodecyl sulfate and subjecting the entire contents of the well to scintillation counting. Fractional release of label was calculated by dividing the amount of label detected in cell supernatant by the total amount of label detected in the supernatant and in the cells remaining in the well, and percentage release was calculated by multiplying fractional release by 100.
A similar study was done using the same methods, except that cockroach hypertrehalosemic factor (0 to 5×10^−5 molar) was used in place of S. gregaria AKH II.
A similar tritium label release experiment performed using Heliothis zea AKH II and Locusta migratoria, except that a two-hour incubation period was used in place of a 4 hour incubation period.

[4] = agent 1 × 10^−6, Table 9 experiment
[5] = agent 1 × 10^−7, Table 9 experiment
[6] = agent 1 × 10^−8, Table 9 experiment
[7] = agent 1 × 10^−8 molar, 4 hours, 37° C., Table 5 experiment
[8] = agent 1 × 10^−9 molar, 4 hours, 37° C., Table 5 experiment
[9] = agent 1 × 10^−10 molar, 4 hours, 37° C., Table 5 experiment
[10] = agent 1 × 10^−5 molar, five hours, 37° C., Table 8 experiment
[11] = agent 1 × 10^−6 molar, five hours, 37° C., Table 8 experiment
[12] = agent 1 × 10^−7 molar, five hours, 37° C., Table 8 experiment
[13] = agent 1 × 10^−8 molar, five hours, 37° C., Table 8 experiment
[14] = agent 1 × 10^−9 molar, five hours, 37° C., Table 8 experiment

In the case of `CC(C)NCC(O)c1ccc(O)c(O)c1` (stereo not shown) [Isoproterenol, isoproterenol, reference compound], the “Glycerol Release with Agent (medium concentration in millimolar)” value (“Glycerol Release with Agent” for short) (human adipocytes [1]; [4]) is reported as 0.5172 ± 0.1659 millimolar, the “Glycerol Release with Agent” value (human adipocytes [1]; [5]) is reported as 0.2169 ± 0.0316 millimolar and the “Glycerol Release with Agent” value (human adipocytes [1]; [6]) is reported as 0.1325 ± 0.0244 millimolar. The “Glycerol Release with Agent” value (human adipocytes [1]; agent 1 × 10^−9, Table 9 experiment) was 0.0381 ± 0.011 millimolar, the “Glycerol Release with Agent” value (human adipocytes [2]; agent 1 micromolar, propanolol 0 molar) was 0.5172 millimolar and the “Glycerol Release with Agent” value (human adipocytes [2]; agent 1 micromolar, propanolol 1 × 10^−5 molar) was 0.2305 millimolar. The “Glycerol Release with Agent” value (human adipocytes [2]; agent 1 micromolar, propanolol 1 × 10^−6 molar) was 0.411 millimolar, the “Glycerol Release with Agent” value (human adipocytes [2]; agent 1 micromolar, propanolol 1 × 10^−7 molar) was 0.6533 millimolar and the “% Tritium Label Release with Agent” value (human adipocytes [3]; [7]) was 15.58%. The “% Tritium Label Release with Agent” value (human adipocytes [3]; agent 1 × 10^−8 molar, 4 hours, 37° C., Table 6 experiment) was 9.8%, the “% Tritium Label Release with Agent” value (human adipocytes [3]; [8]) was 12.67% and the “% Tritium Label Release with Agent” value (human adipocytes [3]; agent 1 × 10^−9 molar, 4 hours, 37° C., Table 6 experiment) was 6.67%. The “% Tritium Label Release with Agent” value (human adipocytes [3]; [9]) was 11.11%, the “% Tritium Label Release with Agent” value (human adipocytes [3]; agent 1 × 10^−10 molar, 4 hours, 37° C., Table 6 experiment) was 8.97% and the “% Tritium Label Release with Agent” value (human adipocytes [3]; agent 1 × 10^−11 molar, 4 hours, 37° C., Table 5 experiment) was 9.9%. For the same compound, the “% Tritium Label Release with Agent” value (human adipocytes [3]; agent 1 × 10^−11 molar, 4 hours, 37° C., Table 6 experiment) was 5.87%, the “% Tritium Label Release with Agent” value (human adipocytes [3]; agent 5 × 10^−8 molar, 4 hours, 37° C., Table 5 experiment) was 16.99% and the “% Tritium Label Release with Agent” value (human adipocytes [3]; agent 5 × 10^−8 molar, 4 hours, 37° C., Table 6 experiment) was 10.8%. For the same compound, the “% Tritium Label Release with Agent” value (human adipocytes [3]; agent 5 × 10^−9 molar, 4 hours, 37° C., Table 5 experiment) was 14.14%, the “% Tritium Label Release with Agent” value (human adipocytes [3]; agent 5 × 10^−9 molar, 4 hours, 37° C., Table 6 experiment) was 5.93% and the “% Tritium Label Release with Agent” value (human adipocytes [3]; agent 5 × 10^−10 molar, 4 hours, 37° C., Table 5 experiment) was 11.21%. The “% Tritium Label Release with Agent” value (human adipocytes [3]; agent 5 × 10^−10 molar, 4 hours, 37° C., Table 6 experiment) was 7.58%, the “% Tritium Label Release with Agent” value (human adipocytes [3]; agent 5 × 10^−11 molar, 4 hours, 37° C., Table 5 experiment) was 10.62% and the “% Tritium Label Release with Agent” value (human adipocytes [3]; agent 5 × 10^−11 molar, 4 hours, 37° C., Table 6 experiment) was 6.96%. The “% Tritium Label Release with Agent” value (human adipocytes [3]; agent 5 × 10^−12 molar, 4 hours, 37° C., Table 5 experiment) was 10.12% and the “% Tritium Label Release with Agent” value (human adipocytes [3]; agent 5 × 10^−12 molar, 4 hours, 37° C., Table 6 experiment) was 6.81%.

For `CC(C)NCC(O)COc1cccc2ccccc12` (stereo not shown) [Propanolol, propanolol], the “Inhibition by propanolol of glycerol release induced by isoproterenol” value (human adipocytes [2]; adipocytes) was “able to inhibit glycerol release”, the “Glycerol Release, No Agent (medium concentration in millimolar)” value (“Glycerol Release, No Agent” below) (human adipocytes [2]; 1 × 10^−5 molar) was 0.0463 ± 0.0042 millimolar and the “Glycerol Release, No Agent” value (human adipocytes [2]; 1 × 10^−6 molar) was 0.0417 ± .00072 millimolar. The “Glycerol Release, No Agent” value (human adipocytes [2]; 1 × 10^−7 molar) was 0.0399 ± 0.0069 millimolar and the “Glycerol Release, No Agent” value (human adipocytes [2]; 1 × 10^−8 molar) was 0.0399 ± 0.0083 millimolar.

In the case of “DFDMLRCMLGRVYRPCWQV (disulfide 7-16 (inferred); listed as Insect sp.) [melanocyte concentrating hormone, reference compound]”, the Lipid mobilizing activity (human adipocytes [1]) is reported as “No lipid mobilizing activity could be detected”.

With “ELNFSTGW (listed as Schistocerca gregaria) [Schistocera gregaria AKH II, insect adipokinetic hormone of the desert locust]” the “Glycerol Release with Agent” value (human adipocytes [1]; [10]) was 0.693 millimolar, the “Glycerol Release with Agent” value (human adipocytes [1]; [11]) was 0.628 millimolar and the “Glycerol Release with Agent” value (human adipocytes [1]; [12]) was 0.530 millimolar. The “Glycerol Release with Agent” value (human adipocytes [1]; [13]) was 0.523 millimolar, the “Glycerol Release with Agent” value (human adipocytes [1]; [14]) was 0.486 millimolar and the “Ability to promote lipid mobilization in human adipocytes” value (human adipocytes [1]) was “able to promote lipid mobilization”. For the same compound, the “% Tritium Label Release with Agent” value (human adipocytes [3]; agent 1 × 10^−5 molar, 4 hours, 37° C., Table 5 experiment) was 14.28%, the “% Tritium Label Release with Agent” value (human adipocytes [3]; agent 1 × 10^−6 molar, 4 hours, 37° C., Table 5 experiment) was 13.38% and the “% Tritium Label Release with Agent” value (human adipocytes [3]; agent 1 × 10^−7 molar, 4 hours, 37° C., Table 5 experiment) was 10.76%. The “% Tritium Label Release with Agent” value (human adipocytes [3]; [7]) was 10.76%, the “% Tritium Label Release with Agent” value (human adipocytes [3]; [8]) was 9.6% and the “% Tritium Label Release with Agent” value (human adipocytes [3]; [9]) was 10.74%. For the same compound, the “% Tritium Label Release with Agent” value (human adipocytes [3]; agent 5 × 10^−5 molar, 4 hours, 37° C., Table 5 experiment) was 16.65%, the “% Tritium Label Release with Agent” value (human adipocytes [3]; agent 5 × 10^−6 molar, 4 hours, 37° C., Table 5 experiment) was 14.94% and the “% Tritium Label Release with Agent” value (human adipocytes [3]; agent 5 × 10^−7 molar, 4 hours, 37° C., Table 5 experiment) was 11.31%. The “Ability to mobilize lipids in adipocytes” value (human adipocytes [3]) was “able to mobilize lipids”.

With “ELNFTPNWGT (listed as Schistocerca gregaria) [Locusta migratoria AKH I, insect adipokinetic hormone, American Peptide Co. catalog number 60-9-18]” the “Glycerol Release with Agent” value (human adipocytes [1]; agent 1 × 10^−5, Table 9 experiment) was 0.0871 ± 0.0134 millimolar, the “Glycerol Release with Agent” value (human adipocytes [1]; [10]) was 0.691 millimolar and the “Glycerol Release with Agent” value (human adipocytes [1]; [4]) was 0.0427 ± 0.0129 millimolar. The “Glycerol Release with Agent” value (human adipocytes [1]; [11]) was 0.467 millimolar, the “Glycerol Release with Agent” value (human adipocytes [1]; [5]) was 0.0336 ± 0.0082 millimolar and the “Glycerol Release with Agent” value (human adipocytes [1]; [12]) was 0.490 millimolar. For the same compound, the “Glycerol Release with Agent” value (human adipocytes [1]; [6]) was 0.0209 ± 0.0110 millimolar, the “Glycerol Release with Agent” value (human adipocytes [1]; [13]) was 0.476 millimolar and the “Glycerol Release with Agent” value (human adipocytes [1]; [14]) was 0.611 millimolar. For the same compound, the “Ability to promote lipid mobilization in human adipocytes” value (human adipocytes [1]) was “able to promote lipid mobilization”, the “Glycerol Release with Agent” value (human adipocytes [2]; agent 10 micromolar, propanolol 0 molar) was 0.0871 ± 0.0134 millimolar and the “Glycerol Release with Agent” value (human adipocytes [2]; agent 10 micromolar, propanolol 1 × 10^−5 molar) was 0.2214 ± 0.0287 millimolar. The “Glycerol Release with Agent” value (human adipocytes [2]; agent 10 micromolar, propanolol 1 × 10^−6 molar) was 0.2169 ± 0.0294 millimolar, the “Glycerol Release with Agent” value (human adipocytes [2]; agent 10 micromolar, propanolol 1 × 10^−7 molar) was 0.2486 ± 0.0249 millimolar and the “% Tritium Label Release with Agent” value (human adipocytes [3]; agent 1 × 10^−5 molar, two-hour incubation, Table 7) was 10.8%. For the same compound, the “% Tritium Label Release with Agent” value (human adipocytes [3]; agent 1 × 10^−6 molar, two-hour incubation, Table 7) was 7.52%, the “% Tritium Label Release with Agent” value (human adipocytes [3]; agent 1 × 10^−7 molar, two-hour incubation, Table 7) was 6.34% and the “% Tritium Label Release with Agent” value (human adipocytes [3]; agent 1 × 10^−8 molar, two-hour incubation, Table 7) was 7.00%. For the same compound, the “% Tritium Label Release with Agent” value (human adipocytes [3]; agent 1 × 10^−9 molar, two-hour incubation, Table 7) was 7.44%, the “% Tritium Label Release with Agent” value (human adipocytes [3]; agent 1 × 10^−10 molar, two-hour incubation, Table 7) was 7.62% and the “Ability to mobilize lipids in adipocytes” value (human adipocytes [3]) was “able to mobilize lipids”.

With “SYSMEHFRWGKPV (Ac-SYSMEHFRWGKPV-NH2; listed as Insect sp.) [alpha-melanocyte stimulating hormone, reference compound]” the Lipid mobilizing activity (human adipocytes [1]) was “No lipid mobilizing activity could be detected”.

Reference: patent US20040224898A1, “Compositions and methods for promoting lipid mobilization in humans” (priority 2002, published 2004)
